Data on 1 compound can be found in US20190094246A1, “DETECTION OF NEURODEGENERATIVE DISEASES” (AMONETA DIAGNOSTICS SAS, priority 2016, published 2019).

For experiment [1], the system named is RBCs from transgenic APP/PS1 mice versus age-matched Wild-Type mice. Description: RBC staining in Alzheimer animal model, transgenic versus wild type. The format is cell-based.
Excerpt: Transgenic mice used in this study carry two mutations associated with early onset AD: mutant amyloid precursor protein (K670N and M671L) and mutant human presenilin 1 (M146V). These transgenic mice develop AD-related phenotype consisting in beta-amyloid peptide overproduction and formation of amyloid plaques in their brain.
Experiment [2] deals with red blood cells (RBCs) from human subjects. Description: Dose-dependent staining of RBCs, flow cytometry (MEDFI). The class given is cell-based. The settings on record: 0.03, 0.1, 0.3, 1 and 3 μM; RBCs 200 000 cells/mL of 3 human subjects; channel FL1 (Ex. 1), FL3 (Ex. 9). (Flow cytometry measures light scatter and fluorescence of single cells or particles in a stream.)
Description: The blood from an animal or a human subject is sampled in specific 5 mL tube, such as lithium-heparin tube. The blood is manually mixed by inversion before use.
Red blood cells (RBCs) are obtained from whole blood after centrifugation at 200 g for 10 minutes at room temperature. RBCs pellet down and segregate from white blood cells, platelets and plasma. 5 μL of RBCs are pipetted, diluted 1000 times in 5 mL of Flow cytometry buffer (FACS buffer: 150 mM of NaCl; 1 mM of D-Glucose; 5 mM of Na2HPO4; 0.5 mM CaCl2) and either numbered by manual counting on disposable Malassez-like counting cell (X100 Cellule Fast Read, Fisher Scientific, Ref #11762712) with a microscope or counted with Flow count Fluorospheres (Beckman, Ref 7547053) so as to obtain a cell concentration of stock solution to be used in the test. […]
From these different concentration stocks, the same quantity (4) of compounds at desired concentration to be tested is added to erythrocytes in each FACS vial to obtain the same % of DMSO (0.5% of DMSO) at the end. […] In all experiments, a control is performed with the final amount of compound solvent (DMSO alone, without test compound), in order to obtain the auto-fluorescence of the RBCs.
These fluorescences are detected by the gating of erythrocytes in a log FSC/log SSC plot. […]

As to `COCCOCC#CB(C#CCOCCOC)n1c(C)cc(C)c1/C(=C1\N=C(C)C=C1C)c1ccc(C(=O)NCCCn2cc(C3=C(c4cn(C)c5ccccc45)C(=O)NC3=O)c3ccccc32)cc1` [Ex. 9], the “discrimination between transgenic and wild type mice by RBC staining” value in experiment [1] (1 μM, 5 transgenic mice and 6 age-matched wild type mice) is on record as “excellent accuracy”. For the same compound, the “discrimination between the transgenic mouse group and control mouse group by RBC staining” value in experiment [1] (concentration not given) was “good accuracy”. Also, the “staining of RBCs (index MEDFI)” value in experiment [2] is listed as “dose-dependent staining”.
